Test results from the supplement of paper PMC10627819.

Legend:
S. pneumoniae D39V [1] = test: fitness (endpoint OD595 vs no drug) (fraction); higher = more growth
How it was run: (§1)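 Fitness compares growth at the stationary-phase transition with the robust mean of no-drug control wells, as a ratio of optical densities. The ratio is capped at 1. Wells of 384-well plates held 30 µl, or 55 µl for S. pneumoniae, inoculated at OD595 0.01. Readings at OD595 every 30 min for 14 h at 37 °C were corrected against the first reading.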

B. subtilis 168 [2] = test: as above
How it was run: as §1

S. aureus Newman [3] = test: as above
How it was run: as §1

S. pneumoniae D39V [4] = test: Bliss interaction score (quartile over a dose matrix) (fitness difference); higher = more antagonism (negative = synergy)
How it was run: (§2)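 Fitness was OD595 at entry into stationary phase divided by the plate's robust no-drug mean and capped at 1; single-drug fitness was inferred from combination data. The Bliss score is observed minus expected (product) fitness, summarised by quartiles over technical, biological and donor/recipient replicates.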

S. aureus DSM 20231 = test: as above
How it was run: as §2

B. subtilis 168 [5] = test: as above
How it was run: as §2

S. aureus Newman [6] = test: as above
How it was run: as §2
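Throughout, for Bliss interaction score (quartile over a dose matrix): first quartile when negative (synergy) and third quartile when positive (antagonism).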

COc1cccc2c1C(=O)c1c(O)c3c(c(O)c1C2=O)C[C@@](O)(C(=O)CO)C[C@@H]3O[C@H]1C[C@H](N)[C@H](O)[C@H](C)O1 [Doxorubicin] + CN(C)c1cc(NC(=O)CNC(C)(C)C)c(O)c2c1C[C@H]1C[C@H]3[C@H](N(C)C)C(O)=C(C(N)=O)C(=O)[C@@]3(O)C(O)=C1C2=O [Tigecycline]
fitness
Settings | first compound 0.25 µg/mL | first compound 0.5 µg/mL | first compound 0.625 µg/mL | first compound 1 µg/mL | first compound 1.25 µg/mL | first compound 2.5 µg/mL
B. subtilis 168 [2], partner 0.039 µg/mL | – | – | ≥ 1 | – | 0.952 | 0.65
B. subtilis 168 [2], partner 0.078 µg/mL | – | – | 0.868 | – | 0.939 | 0.609
B. subtilis 168 [2], partner 0.156 µg/mL | – | – | 0.919 | – | 0.879 | 0.693
S. aureus Newman [3], partner 0.039 µg/mL | – | – | 0.783 | – | 0.761 | 0.71
S. aureus Newman [3], partner 0.078 µg/mL | – | – | 0.822 | – | 0.821 | 0.742
S. aureus Newman [3], partner 0.156 µg/mL | – | – | 0.828 | – | 0.811 | 0.744
S. pneumoniae D39V [1], partner 0.325 µg/mL | 0.927 | 0.975 | – | 0.931 | – | –
S. pneumoniae D39V [1], partner 0.65 µg/mL | 0.928 | 0.94 | – | 0.89 | – | –
S. pneumoniae D39V [1], partner 1.3 µg/mL | 0.926 | 0.961 | – | 0.884 | – | –
S. pneumoniae D39V [1], partner 2.6 µg/mL | 0.874 | 0.912 | – | 0.79 | – | –

fitness, B. subtilis 168 [2], one replicate
Settings | first compound 0.625 µg/mL | first compound 1.25 µg/mL | first compound 2.5 µg/mL
partner 0.125 µg/mL | 0.963 | 0.984 | 0.973
partner 0.25 µg/mL | 0.89 | 0.892 | 0.916
partner 0.5 µg/mL | 0.86 | 0.913 | 0.925

Settings | Bliss interaction score
B. subtilis 168 [5] | 0.0886
S. aureus DSM 20231 | -0.0419
S. aureus Newman [6] | -0.0645
S. pneumoniae D39V [4] | 0.0654

COc1ccc(C[C@H](N)C(=O)N[C@H]2[C@@H](O)[C@H](n3cnc4c(N(C)C)ncnc43)O[C@@H]2CO)cc1 [Puromycin] + CN[C@@H]1[C@H](O[C@H]2[C@H](O[C@H]3[C@H](O)[C@@H](O)[C@H](N=C(N)N)[C@@H](O)[C@@H]3N=C(N)N)O[C@@H](C)[C@]2(O)C=O)O[C@@H](CO)[C@H](O)[C@H]1O [Streptomycin]
fitness
Settings | first compound 0.39 µg/mL | first compound 0.78 µg/mL | first compound 1 µg/mL | first compound 1.56 µg/mL | first compound 2 µg/mL | first compound 4 µg/mL
B. subtilis 168 [2], partner 2 µg/mL | 0.908 | 0.878 | – | 0.796 | – | –
B. subtilis 168 [2], partner 4 µg/mL | 0.27 | 0.143 | – | 0.106 | – | –
B. subtilis 168 [2], partner 8 µg/mL | 0.0282 | 0.0233 | – | 0.0357 | – | –
S. aureus Newman [3], partner 1 µg/mL | ≥ 1 | 0.968 | – | 0.991 | – | –
S. aureus Newman [3], partner 2 µg/mL | ≥ 1 | 0.964 | – | 0.939 | – | –
S. pneumoniae D39V [1], partner 2 µg/mL | – | – | 0.933 | – | 0.914 | 0.739
S. pneumoniae D39V [1], partner 4 µg/mL | – | – | 0.956 | – | 0.906 | 0.746
S. pneumoniae D39V [1], partner 8 µg/mL | – | – | 0.876 | – | 0.784 | 0.567

S. pneumoniae D39V [1], partner 16 µg/mL, one replicate
Settings | fitness
first compound 1 µg/mL | 0.748
first compound 2 µg/mL | 0.643
first compound 4 µg/mL | 0.254

Settings | Bliss interaction score
B. subtilis 168 [5] | -0.226
S. aureus DSM 20231 | -0.193
S. aureus Newman [6] | 0.0431
S. pneumoniae D39V [4] | -0.0971

O=C(O)c1cn(C2CC2)c2cc(N3CCNCC3)c(F)cc2c1=O [Ciprofloxacin] + C[C@@H]1O[C@@H]1P(=O)(O)O [Fosfomycin]
Settings | fitness
B. subtilis 168 [2], first compound 0.0098 µg/mL, partner 1.562 µg/mL | 0.669
B. subtilis 168 [2], first compound 0.0098 µg/mL, partner 3.124 µg/mL | 0.577
B. subtilis 168 [2], first compound 0.0195 µg/mL, partner 1.562 µg/mL | 0.409
B. subtilis 168 [2], first compound 0.0195 µg/mL, partner 6.248 µg/mL | 0.169
B. subtilis 168 [2], first compound 0.039 µg/mL, partner 1.562 µg/mL | 0.0478
B. subtilis 168 [2], first compound 0.039 µg/mL, partner 3.124 µg/mL | 0.035
B. subtilis 168 [2], first compound 0.039 µg/mL, partner 6.248 µg/mL | 0.0167
S. aureus Newman [3], first compound 0.0375 µg/mL, partner 0.781 µg/mL | 0.553
S. aureus Newman [3], first compound 0.0375 µg/mL, partner 1.562 µg/mL | 0.455
S. aureus Newman [3], first compound 0.0375 µg/mL, partner 3.124 µg/mL | 0.0938
S. aureus Newman [3], first compound 0.075 µg/mL, partner 0.781 µg/mL | 0.527
S. aureus Newman [3], first compound 0.075 µg/mL, partner 3.124 µg/mL | 0.117
S. aureus Newman [3], first compound 0.15 µg/mL, partner 0.781 µg/mL | 0.168
S. aureus Newman [3], first compound 0.15 µg/mL, partner 1.562 µg/mL | 0.114
S. aureus Newman [3], first compound 0.15 µg/mL, partner 3.124 µg/mL | 0.0354
S. pneumoniae D39V [1], first compound 0.125 µg/mL, partner 1.25 µg/mL | 0.94
S. pneumoniae D39V [1], first compound 0.125 µg/mL, partner 2.5 µg/mL | 0.892
S. pneumoniae D39V [1], first compound 0.125 µg/mL, partner 5 µg/mL | 0.688
S. pneumoniae D39V [1], first compound 0.25 µg/mL, partner 1.25 µg/mL | 0.865
S. pneumoniae D39V [1], first compound 0.25 µg/mL, partner 2.5 µg/mL | 0.782
S. pneumoniae D39V [1], first compound 0.25 µg/mL, partner 5 µg/mL | 0.652
S. pneumoniae D39V [1], first compound 0.5 µg/mL, partner 5 µg/mL | 0.42

Settings | Bliss interaction score
B. subtilis 168 [5] | -0.177
S. aureus DSM 20231 | 0.042
S. aureus Newman [6] | 0.0638
S. pneumoniae D39V [4] | -0.0628

O=C(O)c1cn(C2CC2)c2cc(N3CCNCC3)c(F)cc2c1=O [Ciprofloxacin] + COc1ccc(C[C@H](N)C(=O)N[C@H]2[C@@H](O)[C@H](n3cnc4c(N(C)C)ncnc43)O[C@@H]2CO)cc1 [Puromycin]
Settings | fitness
B. subtilis 168 [2], first compound 0.0098 µg/mL, partner 0.39 µg/mL | 0.918
B. subtilis 168 [2], first compound 0.0098 µg/mL, partner 0.78 µg/mL | 0.956
B. subtilis 168 [2], first compound 0.0098 µg/mL, partner 1.56 µg/mL | 0.842
B. subtilis 168 [2], first compound 0.0195 µg/mL, partner 0.39 µg/mL | 0.721
B. subtilis 168 [2], first compound 0.0195 µg/mL, partner 0.78 µg/mL | 0.721
B. subtilis 168 [2], first compound 0.0195 µg/mL, partner 1.56 µg/mL | 0.683
B. subtilis 168 [2], first compound 0.039 µg/mL, partner 0.39 µg/mL | 0.0586
B. subtilis 168 [2], first compound 0.039 µg/mL, partner 0.78 µg/mL | 0.0556
B. subtilis 168 [2], first compound 0.039 µg/mL, partner 1.56 µg/mL | 0.0555
S. aureus Newman [3], first compound 0.0375 µg/mL, partner 0.39 µg/mL | 0.679
S. aureus Newman [3], first compound 0.0375 µg/mL, partner 0.78 µg/mL | 0.635
S. aureus Newman [3], first compound 0.0375 µg/mL, partner 1.56 µg/mL | 0.651
S. aureus Newman [3], first compound 0.075 µg/mL, partner 0.39 µg/mL | 0.577
S. aureus Newman [3], first compound 0.075 µg/mL, partner 0.78 µg/mL | 0.522
S. aureus Newman [3], first compound 0.075 µg/mL, partner 1.56 µg/mL | 0.422
S. aureus Newman [3], first compound 0.15 µg/mL, partner 0.39 µg/mL | 0.0435
S. aureus Newman [3], first compound 0.15 µg/mL, partner 0.78 µg/mL | 0.0274
S. aureus Newman [3], first compound 0.15 µg/mL, partner 1.56 µg/mL | 0.0296
S. pneumoniae D39V [1], first compound 0.125 µg/mL, partner 1 µg/mL | 0.944
S. pneumoniae D39V [1], first compound 0.125 µg/mL, partner 2 µg/mL | 0.92
S. pneumoniae D39V [1], first compound 0.125 µg/mL, partner 4 µg/mL | 0.492
S. pneumoniae D39V [1], first compound 0.25 µg/mL, partner 1 µg/mL | 0.808
S. pneumoniae D39V [1], first compound 0.25 µg/mL, partner 2 µg/mL | 0.846
S. pneumoniae D39V [1], first compound 0.25 µg/mL, partner 4 µg/mL | 0.51
S. pneumoniae D39V [1], first compound 0.5 µg/mL, partner 4 µg/mL | 0.347

Settings | Bliss interaction score
B. subtilis 168 [5] | -0.118
S. aureus DSM 20231 | -0.135
S. aureus Newman [6] | -0.132
S. pneumoniae D39V [4] | -0.0901
